Holding throughout (design): species or system human
The test system of test [1] is GPMVs derived from HeLa cells. The test is described as follows: Ten-point dose response of re-ordered hits in GPMVs. As to conditions: for percentage of phase separated vesicles as a function of increasing concentration: freshly made reordered stocks. Here is the method:
Compounds identified in the initial screens as potential hits were re-ordered and their identity verified by mass spectrometry by the Vanderbilt Chemical Synthesis Core. Ten-point dose response curves using ˜1:2 serial dilutions were generated producing a range of final concentration of 30 nM to […] and backfilled to yield equivalent concentrations of DMSO. Data were collected in duplicate for each concentration. Two independent dose response experiments were performed.

For test [2], the system named is GPMVs from HeLa cells. The test is described as follows: Di4 fluorescence lifetime imaging (lipid packing in GPMVs). Conditions: TLCK 1 μM, C6-ceramide 1 μM, MβCD 5 mM; for phase state of GPMVs in FLIM images: room temperature; for average Di4 lifetime: single-phase GPMVs (MβCD: average across all domains), control 2.53±0.06 ns, mean±SD. An excerpt: It was also of interest how TLCK and C6-ceramide impact other properties of the membrane compared to treatments such as cholesterol depletion that are commonly used to disrupt rafts in cells (Zidovetzki & Levitan, 2007). To test this, we examined their effects on membrane lipid packing and fluidity using a fluorescent reporter of membrane packing, Di-4-[…] (Di4) (Jin et al., 2006; Owen et al., 2006; Sezgin et al., 2014; Levental et al., 2020b; Lorent et al., 2020). As a control, we subjected GPMVs to cholesterol depletion using 5 mM MβCD. The photophysical characteristics of Di4, including its lifetime, are dependent on lipid packing in membranes. In particular, a lower Di4 lifetime is indicative of loose packing and a more fluid membrane environment whereas higher Di4 lifetimes point to a less fluid membranes and tighter lipid packing. […] The phase separated vesicles were characterized by two populations of lifetimes, corresponding to the Lo phase (higher lifetime) and Ld phase (lower lifetime) (FIGS. 11A-11F).
GPMVs were prepared as previously described by Sezgin, E, et al., Nat Protoc 2012, 7 (6), 1042-51. In brief, HeLa cells were washed twice with GPMV buffer (2 mM CaCl2)/10 mM HEPES/0.15 M NaCl, pH 7.4), then washed twice with GPMV active buffer (GPMV buffer containing 25 mM formaldehyde and 2 mM DTT). Cells were then incubated with GPMV active buffer for 1-2 hours at 37° C. with shaking at 90-95 RPM. The GPMV-containing supernatant was decanted into a centrifuge tube and GPMVs were allowed to settle for 1 h. Aliquots of GPMVs (100 μL) were pipetted from the bottom of the Eppendorf tube into separate tubes and treated with DMSO (0.1%), 1 μM TLCK, 1 μM C6-ceramide or 5 mM MbCD. After 5 min, Di 4 […] (Di4) (Thermo Scientific) was added to a final concentration of […] from a stock solution of 1 mg/mL Di4 in ethanol. The GPMVs were then sandwiched between two coverslips coated with 1 mg/mL bovine serum albumin (BSA) solution and allowed to incubate for an additional 20 min prior to lifetime measurements.
Di4 lifetime images were performed on a Leica TCS SP8 system comprising a Leica DMi8 inverted scanning confocal microscope with time-correlated single photon counting (TC-SPC) system and an 80 MHz-pulsed supercontinuum white light laser which allows continuously tunable excitation in the visible range coupled with filter-free detection. Samples were imaged using an HC PL APO CS2 63X/1.20 water objective. Di4 was excited at 488 nm and the emission was collected in the 550-800 nm range. The photon count rate was kept under 0.5 photons per laser pulse by adjusting the laser power, and sufficient frames were cumulatively acquired to obtain at least 100 photons per pixel. The fluorescence decay curves were fit with a bi-exponential re-convolution function adjusted to the instrument response function, and the average intensity-weighted lifetime was calculated for individual vesicles or area of interest and represented in the FLIM images as Di4 lifetime. Data are reported from two independent experiments. Statistical analyses were performed using GraphPad Prism 9.3.0.

Test [3] deals with GPMVs from HeLa cells. The test is described as follows: Assay robustness, SSMD* based on % phase separated GPMVs. As to conditions: for SSMD* based on percentage of phase separated GPMVs: 10 mM (so in the source) vs DMSO, mean±SD, n=3; for SSMD* effect size class: classification per Zhang, 2011. Here is the method: GPMVs were prepared as described above and incubated for 2 hours at RT. They were then seeded into a flat bottom, black-walled 96-well plates (Greiner Bio-One, Kremsmunster, Austria) coated with 0.1% bovine serum albumin and pre-loaded in a checkerboard pattern with DMSO, 10 mM TLCK, or 10 mM C6 ceramide (FIG. 12A). GPMVs were imaged using the ImageXpress Micro XL automated imager using a Nikon 40× super plan fluor ELWD objective and analyzed using the software described above to determine the percentage of phase separated vesicles in each well (FIG. 12B). An estimate for robust strictly standardized mean difference (SSMD*) (Zhang, X. D., Genomics 2007, 89 (4), 552-611; Zhang, X. D., et al., J Biomol Screen 2011, 16 (7), 775-85) was then calculated based on the percentage of phase separated vesicles per well as reported in the NBD-DSPE channel according to the following equation: […]
Here, XP and XN represent the medians of the percentage of phase separated vesicles for the positive controls (C6 ceramide or TLCK) and negative control (DMSO), respectively, whereas śP and śN correspond to the absolute deviations from the median for the positive and negative controls. Three independent GPMV preparations were analyzed on separate days to evaluate reproducibility (FIG. 12C).

We go through 2 molecules from patent US20240085429A1, “ALTERING PROTEIN FUNCTION BY PHARMACOLOGICAL TARGETING OF MEMBRANE DOMAINS” (University of Virginia Patent Foundation, priority 2021, published 2024).

Counter-ions that a name gives are not always drawn.

In the case of `CCCCCCCCCCCCC/C=C/[C@@H](O)[C@H](CO)NC(=O)CCCCC` [C6 Ceramide (d18:1/6:0)], in test [1], the “effect on phase preference of NBD-DSPE (Pordered) versus concentration” value is on record as “dose-dependent” and the “percentage of phase separated vesicles as a function of increasing concentration” value was “opposite effect”. For the same molecule, in test [2], the “phase state of GPMVs in FLIM images” value is on record as “contained a single membrane phase” and the “average Di4 lifetime” value came to 2.53±0.11 ns. For the same molecule, in test [3], the “SSMD* based on percentage of phase separated GPMVs” value stood at 8.84±2.65 and the “SSMD* effect size class” value was “extremely strong”.

In the case of `Cc1ccc(S(=O)(=O)N[C@@H](CCCCN)C(=O)CCl)cc1` [TLCK hydrochloride, Nα-Tosyl-Lys Chloromethyl Ketone], in test [1], the “effect on phase preference of NBD-DSPE (Pordered) versus concentration” value is “dose-dependent” and the “percentage of phase separated vesicles as a function of increasing concentration” value is on record as “systematically increased”. For the same molecule, in test [2], the “phase state of GPMVs in FLIM images” value was “mixture of phase separated” and the “average Di4 lifetime” value was 2.43±0.06 ns. Besides, in test [3], the “SSMD* based on percentage of phase separated GPMVs” value is on record as 1.34±0.29 and the “SSMD* effect size class” value is on record as “moderate”.
